Key:
[1] = biological target: T1, Human squalene epoxidase (Homo sapiens, UniProt Q14534); experiment: Human squalene epoxidase inhibition action; format: biochemical; conditions: solubilized Hep-G2 microsome fraction, 8 μM 3H-squalene, 37° C., 60 minutes, read-out: Inhibition rate at 3 μM concentration
T1 construct: The resultant supernatant is used as the squalene epoxidase fraction in the later-described test; endogenous in cells; host or cells: Hep-G2 human hepatoma cells (microsomes solubilized with Triton X-100)
T1 sequence (Q14534 whole entry): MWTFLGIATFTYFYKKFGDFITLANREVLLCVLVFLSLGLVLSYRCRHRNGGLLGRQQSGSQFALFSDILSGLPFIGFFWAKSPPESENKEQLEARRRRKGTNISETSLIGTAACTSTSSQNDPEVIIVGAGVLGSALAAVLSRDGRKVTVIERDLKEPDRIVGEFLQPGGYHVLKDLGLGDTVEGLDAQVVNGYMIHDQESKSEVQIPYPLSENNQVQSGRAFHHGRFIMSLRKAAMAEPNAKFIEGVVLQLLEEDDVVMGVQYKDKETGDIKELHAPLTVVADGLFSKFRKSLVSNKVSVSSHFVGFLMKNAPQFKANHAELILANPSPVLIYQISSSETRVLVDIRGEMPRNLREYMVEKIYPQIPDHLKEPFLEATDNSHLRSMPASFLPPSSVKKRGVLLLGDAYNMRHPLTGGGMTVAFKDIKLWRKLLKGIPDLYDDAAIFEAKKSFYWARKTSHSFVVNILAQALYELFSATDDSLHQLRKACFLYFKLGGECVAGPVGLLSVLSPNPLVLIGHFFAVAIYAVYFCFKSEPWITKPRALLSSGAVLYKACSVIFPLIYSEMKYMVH
Experimental: Squalene epoxidase inhibition action
(1) Preparation of squalene epoxidase
Human squalene epoxidase is prepared in accordance with the process disclosed in J. Biol. Chem., 245, 1670 (1970); ibid., 250, 1572 (1975).
Namely, human hepatoma (Hep-G2) cells are cultured at 37° C. under air containing 5% carbon dioxide. After completion of the culture, the cells are scraped and collected by centrifugation. The cells are suspended in 0.1M Tris-HCl buffer (pH 7.5) (1×10^8 cells/ml), the suspension is homogenized and centrifuged at 9750 Xg for 10 minutes, and then the sediment is washed with 0.1M Tris-HCl buffer (pH 7.5) and centrifuged at 105,000 Xg for 1 hour. The resultant microsome is suspended in 0.1M Tris-HCl buffer (pH 7.5) so that the protein amount becomes 20 mg/ml, and solubilized by stirring the suspension under ice cooling in the presence of 1% Triton X-100. After this solubilization treatment, the concentration of Triton X-100 is diluted to 0.125% with 1 mM EDTA and 1 mM dithiothreitol, and the dilution is centrifuged at 105,000 Xg for 1 hour. The resultant supernatant is used as the squalene epoxidase fraction in the later-described test.
(2) Assay of squalene epoxidase activity
Assay of human squalene epoxidase activity is carried out according to the method disclosed in J. Biol. Chem., 245, 1670 (1970).
Namely, 3 μl of a dimethyl sulfoxide solution of a test chemical is added to a solution consisting of 0.2 ml of the squalene epoxidase fraction [protein amount 0.4 mg, 0.1% Triton X-100, […] Tris-HCl buffer (pH 7.5)] prepared in (1), 100 μM FAD, 1 mM NADPH, 1 mM EDTA and 8 μM ^3 H-squalene-Tween 80 suspension to make the total volume 0.3 ml, and the mixture is subjected to reaction with shaking at 37° C. for 60 minutes. 0.3 ml of 10% potassium hydroxide-methanol solution is added to discontinue the reaction, and the mixture is heated at 75° C. for 1 hour. Then the non-saponified substance is extracted with petroleum ether and the extract is concentrated to dryness under a nitrogen stream. The resultant residue is dissolved in a small amount of ethyl ether, pre-coated Silicagel TCL is spotted with the extract, and development is carried out with benzeneethyl acetate (99.5:0.5). The position of the ^3 H-squalene-2,3 -epoxide in the TLC is confirmed using ergosterol acetate as a marker, and the ^3 H-squalene-2,3-epoxide portion in the TLC is cut out. The TLC piece is immersed in a toluene series scintillator and measurement is made using a liquid scintillation counter. Thereby, the inhibition rates (%) against squalene epoxidase at 3 μM concentration of compounds of this invention are determined, and the results are shown in the following Table 1.

[2] = test system: cholesterol biosynthesis; experiment: Inhibition test of in vivo cholesterol biosynthesis in rat; set-up: species or system rat (female SD); conditions: 3 mg/kg oral, n = 5, rat; for 14C-cholesterol, dpm: dpm of produced 14C-cholesterol in 1 ml of plasma, control values 2282-3218 dpm; for Cholesterol biosynthesis inhibition rate: versus control group
Experimental: Inhibition test of in vivo cholesterol biosynthesis
In this in vivo test, female SD rats (5 weeks old) are used. The rats are raised for 9 days under an environment where illumination is applied with reversed day and night (dark from 6 a.m. to 6 p.m.), and meanwhile they can freely ingest a solid feed and water. A test chemical is orally administered two hours before dark 6 o'clock when cholesterol biosynthesis becomes maximum. The compound is dissolved in a middle-chain fatty acid triglyceride, and orally administered at 3 mg/kg in an amount of 0.5 ml/100 g body weight. Further, the same volume of the solvent (vehicle) used is administered to control animals. […] after the administration of the test chemical, 20μ Ci/100 g body weight of ^14 C-sodium acetate (56 m Ci/m mole) is intraperitoneally administered to the rats, respectively. At dark 6 o'clock blood is sampled from the abdominal artery of each animal under ether anesthesia and centrifuged to separate the plasma.
2 ml of 15% potassium hydroxide-methanol solution is added per ml of the plasma, and the mixture is heated at 75° C. for 3 hours to carry out saponification. Each sample is extracted twice, each time with 2 ml of petroleum ether, and the extract is washed with 2 ml of distilled water. Finally each extract is evaporated to dryness under a nitrogen stream.
The resultant residue is dissolved in a small amount of ethyl ether, and a pre-coated silica gel TLC is spotted with the total amount of the solution. This plate is developed with a solvent system of hexane/ethyl ether/acetic acid (85:15:4). Coloring is carried out with iodine, and radioactivity at the cholesterol part is assayed using a liquid scintillation counter.
The results (Table 2) are expressed by dpm values of produced ^14 C-cholesterol existing in 1 ml of each plasma. Further, the inhibition of cholesterol biosynthesis is calculated by comparing the amounts of ^14 C-cholesterol biosynthesis between the test groups and the control group.

[3] = test system: rats (SD male); experiment: Subacute toxicity test; format: in vivo, rat (SD male); conditions: 300 mg/kg per day oral for 7 days, 3 animals per group, 0.5% aqueous methylcellulose suspension
Experimental: Subacute toxicity test example
The compound of Example 34 was suspended in 0.5% aqueous methylcellulose solution and orally administered to groups of rats (SD male), each group consisting of 3 animals, at a rate of 300 mg/kg per day for 7 days.

C=CC(C/C=C/C#CC(C)(C)C)Cc1cccc(/C=C/c2cccc(-c3ccsc3)c2)c1 (stereo not drawn) [Example 44]
inhibition at 3 µM [1]: 100%

CC(C)(C)C#C/C=C/C/C(=C\c1cccc(OCc2cc(-c3ccsc3)cs2)c1)CO [Example 5, (E,E)-2-(6,6-dimethyl-2-hepten-4-ynyl)-3-[3-[4-(3-thienyl)-2-thienylmethoxy]phenyl]-2-propen-1-ol]
inhibition at 3 µM [1]: 100%

CC(C)(C)C#C/C=C/C/C(=C\c1cccc(COc2cccc(-c3ccsc3)c2)c1)CO [Example 4, (E,E)-2-(6,6-dimethyl-2-hepten-4-ynyl)-3-[3-[3-(3-thienyl)phenoxymethyl]phenyl]-2-propen-1-ol]
inhibition at 3 µM [1]: 100%

C/C(=C/c1cccc(/C=C/c2cccc(-c3ccsc3)c2)c1)C/C=C/C#CC(C)(C)C [Example 23, 3-[3-[2-[3-[(1Z,4E)-2,8,8-trimethylnona-1,4-dien-6-ynyl]phenyl]ethenyl]phenyl]thiophene]
inhibition at 3 µM [1]: 100%

COCC(C/C=C/C#CC(C)(C)C)Cc1cccc(OCc2cccc(-c3ccsc3)c2)c1 (stereo not drawn) [Example 32, (E)-3-[3-[3-(2-methoxymethyl-8,8-dimethyl-4-nonen-6-ynyl)phenoxymethyl]phenyl]thiophene]
inhibition at 3 µM [1]: 100%

CSC/C(=C/CCCCOc1cccc(-c2ccsc2)c1)C/C=C/C#CC(C)(C)C [Example 42, (E,E)-3-[3-(12,12-dimethyl-6-methylthiomethyltrideca-5,8-dien-10-ynyloxy)phenyl]thiophene]
inhibition at 3 µM [1]: 100%

CC(C)(C)C#C/C=C/C/C(=C\CCC/C=C/c1cccc(-c2ccsc2)c1)CO [Example 1]
inhibition at 3 µM [1]: 100% | 14C-cholesterol, dpm [2]: 275 dpm | Cholesterol biosynthesis inhibition rate [2]: 91%

COC(C)(C)C#C/C=C/C/C(=C\c1cccc(/C=C/c2cccc(-c3ccsc3)c2)c1)CO [Example 8, (E,E,E)-2-(6-methoxy-6-methyl-2-hepten-4-ynyl)-3-[3-[2-[3-(3-thienyl)phenyl]ethenyl]phenyl]-2-propen-1-ol]
inhibition at 3 µM [1]: 100%

CC(C)(C)C#C/C=C/CC(CO)Cc1cccc(OCc2cccc(-c3ccsc3)c2)c1 (stereo not drawn) [Example 11, (E)-2-(6,6-dimethyl-2-hepten-4-ynyl)-3-[3-[3-(3-thienyl)phenylmethoxy]phenyl]propanol]
inhibition at 3 µM [1]: 88%

CC(C)(C)C#C/C=C/C/C(=C\CCCCOc1cccc(-c2ccsc2)c1)CO [Example 2, (E,E)-2-(6,6-dimethyl-2-hepten-4-ynyl)-7-[3-(3-thienyl)phenoxy]-2-hepten-1-ol]
inhibition at 3 µM [1]: 100%

C/C(=C/c1cccc(OCc2cc(-c3ccsc3)cs2)c1)C/C=C/C#CC(C)(C)C [Example 22, 2-[3-[(1Z,4E)-2,8,8-trimethylnona-1,4-dien-6-ynyl]phenoxymethyl]-4-(3-thienyl)thiophene]
inhibition at 3 µM [1]: 100%

C/C(=C/c1cccc(COc2cccc(-c3ccsc3)c2)c1)C/C=C/C#CC(C)(C)C [Example 21, 3-[3-[3-[(1Z,4E)-2,8,8-trimethylnona-1,4-dien-6-ynyl]phenylmethoxy]phenyl]thiophene]
inhibition at 3 µM [1]: 100%

CC(C)(C)C#C/C=C/C/C(=C\c1cccc(/C=C/c2cccc(-c3ccsc3)c2)c1)CO [Example 6, (E,E,E)-2-(6,6-dimethyl-2-hepten-4-ynyl)-3-[3-[2-[3-(3-thienyl)phenyl]ethenyl]phenyl]-2-propen-1-ol]
inhibition at 3 µM [1]: 100% | 14C-cholesterol, dpm [2]: 871 dpm | Cholesterol biosynthesis inhibition rate [2]: 73%

CC(C)(C)C#C/C=C/CC(CO)Cc1cccc(/C=C/c2cccc(-c3ccsc3)c2)c1 (stereo not drawn) [Example 12, (E,E)-2-(6,6-dimethyl-2-hepten-4-ynyl)-3-[3-[2-[3-(3-thienyl)phenyl]ethenyl]phenyl]propanol]
inhibition at 3 µM [1]: 100% | 14C-cholesterol, dpm [2]: 1208 dpm | Cholesterol biosynthesis inhibition rate [2]: 61%

COC/C(=C/c1cccc(CCc2cccc(-c3ccsc3)c2)c1)C/C=C/C#CC(C)(C)C [Example 38, (E,E)-3-[3-[2-[3-(2-methoxymethyl-8,8-dimethylnona-1,4-dien-6-ynyl)phenyl]ethyl]phenyl]thiophene]
inhibition at 3 µM [1]: 100% | 14C-cholesterol, dpm [2]: 350 dpm | Cholesterol biosynthesis inhibition rate [2]: 85%

COC/C(=C/CCCCOc1cccc(-c2ccsc2)c1)C/C=C/C#CC(C)(C)C [Example 30, (E,E)-3-[3-(6-methoxymethyl-12,12-dimethyltrideca-5,8-dien-10-ynyloxy)phenyl]thiophene]
inhibition at 3 µM [1]: 100%

COCC(C/C=C/C#CC(C)(C)C)Cc1cccc(/C=C/c2cccc(-c3ccsc3)c2)c1 (stereo not drawn) [Example 34, (E,E)-3-[3-[2-[3-(2-methoxymethyl-8,8-dimethyl-4-nonen-6-ynyl)phenyl]ethenyl]phenyl]thiophene]
inhibition at 3 µM [1]: 100% | 14C-cholesterol, dpm [2]: 347 dpm | Cholesterol biosynthesis inhibition rate [2]: 85% | death and other toxic symptoms [3]: death and other toxic symptoms were not observed at all

COC/C(=C/c1cccc(OCc2cc(-c3ccsc3)cs2)c1)C/C=C/C#CC(C)(C)C [Example 33, (E,E)-2-[3-(2-methoxymethyl-8,8-dimethylnona-1,4-dien-6-ynyl)phenoxymethyl]-4-(3-thienyl)thiophene]
inhibition at 3 µM [1]: 100%

COC/C(=C/CCC/C=C/c1cccc(-c2ccsc2)c1)C/C=C/C#CC(C)(C)C [Example 29, (E,E,E)-3-[3-(7-methoxymethyl-13,13-dimethyltetradeca-1,6,9-trien-11-ynyl)phenyl]thiophene]
inhibition at 3 µM [1]: 100%

C/C(=C/CCC/C=C/c1cccc(-c2ccsc2)c1)C/C=C/C#CC(C)(C)C [Example 18, 3-[3-[(1E,6Z,9E)-7,13,13-trimethyltetradeca-1,6,9-trien-11-ynyl]phenyl]thiophene]
inhibition at 3 µM [1]: 99%

CC(O)C(C/C=C/C#CC(C)(C)C)Cc1cccc(/C=C/c2cccc(-c3ccsc3)c2)c1 (stereo not drawn) [Example 43, (E,E)-3-(6,6-dimethyl-2-hepten-4-ynyl)-4-[3-[2-[3-(3-thienyl)phenyl]ethenyl]phenyl]-2-butanol]
inhibition at 3 µM [1]: 100%

COC(C)(C)C#CC#CC/C(=C\c1cccc(/C=C/c2cccc(-c3ccsc3)c2)c1)CO [Example 10, (E,E)-2-(6-methoxy-6-methyl-2,4-heptadiynyl)-3-[3-[2-[3-(3-thienyl)phenyl]ethenyl]phenyl]-2-propen-1-ol]
inhibition at 3 µM [1]: 100%

From patent US5444084A, “Substituted heterocyclic derivative having squalene epoxidase inhibition action and its use” (Banyu Pharmaceutical Co., Ltd., priority 1992, dated 1995)
